Legend:
Assay type in all cases: cell-based, human
TF1 cells [1] = assay: Survival of siRNA-transfected TF1 cells without growth factors, viable cells by trypan blue exclusion; settings: absence of growth factors, counted daily by trypan blue exclusion, vs siNS, FIG. 1G
Method: (§1) TF1 cells transfected with siSHIP (triangles) or siNS (squares) were cultured in the absence of growth factors and the total number of viable cells counted daily by trypan blue exclusion (FIG. 1G), TF1 cells were cultured in the presence of increasing concentrations of the growth promoting cytokine IL-5, 2 days after siRNA transfection. Proliferation of siSHIP (diamonds) and control siNS (solid diamonds) transfected TF-1 cells was measured by [^3H]-thymidine incorporation (FIG. 1H).

phospho PKB (Ser 473) = assay: Immunoblot of PKB / phospho PKB (Ser 473) in siRNA-transfected TF1 cells stimulated with GM-CSF; settings: vs siNS, FIG. 1F
Text: TF1 cells transfected with siSHIP ([…], SEQ ID NO: 11) or siNS were stimulated with the cytokine GM-CSF for the indicated length of time.

TF1 cells [2] = assay: Proliferation of siRNA-transfected TF1 cells with IL-5, [3H]-thymidine incorporation; settings: sub-optimal levels of IL-5, 2 days after siRNA transfection, vs siNS, FIG. 1H
Method: as §1

[3] = tested on: TF1 hemopoietic progenitor cell line; assay: Resistance of siRNA-transfected TF1 cells to chemotherapy drugs, [3H]-thymidine incorporation; settings: 4 days after transfection, cisplatin, doxorubicin and taxotere, complete growth media, read 2 days later, vs control siRNA, FIG. 2
Method: The TF1 hemopoietic progenitor cell line was transfected with SHIP1 siRNA or control siRNA as in FIG. 1. After 4 days, the cells were assessed at the indicated concentrations of cisplatin, doxorubicin and taxotere in the presence of complete growth media, [^3H]-thymidine incorporation was measured 2 days later.

siSHIP: siRNA to human SHIP1 mRNA (NM_001017915), position 2437, AAGAGTCAGGAAGGAGAAAAT (SEQ ID NO: 11) (listed as DNA, chemistry not given here)
survival (total number of viable cells) (TF1 cells [1]): considerably increased survival | activation of the PIP3 dependent kinase PKB (phospho PKB Ser 473) (phospho PKB (Ser 473)): enhanced the activation | proliferation ([3H]-thymidine incorporation) (TF1 cells [2]): considerably increased | resistance to chemotherapy drugs ([3H]-thymidine incorporation) [3]: significantly more resistant

Source: patent publication US20100099737A1, “COMPOSITIONS AND METHODS FOR TREATING MYELOSUPPRESSION” (priority 2006, published 2010)
